Measured values as given in US10308667B2, “Oxadiazolopyridine derivatives for use as ghrelin O-acyl transferase (GOAT) inhibitors” (Boehringer Ingelheim International GmbH, priority 2016, dated 2019).

What follows are compounds tested against human GOAT (Homo sapiens (Human), UniProt Q96T53) (assay: Determination of hGOAT Activity in HEK293 Cells after Incubation with Test Compound). Conditions: HEK293 cells stably transfected with preproghrelin and human GOAT; octanoate-BSA 100 μM; acyl-ghrelin in medium by ELISA after 5 hours.
Type: cell-based
Experimental: Determination of hGOAT Activity in HEK293 Cells after Incubation with Test Compound
HEK293 cells stably transfected with two expression vectors, one coding for preproghrelin cDNA and a second for the expression of human GOATcDNA are used as a cellular model. After feeding the cells with octanoic acid for 5 hours, acyl-ghrelin is measured in cell culture medium by an ELISA procedure.
Cellline: Hek293 hGOAT/PPGhrl Clone #1B8Sodium octanoate, Sigma, Cat.-No. C5038
BD Poly-D-Lysin 384-well Plates, black-clear polystyrene BD Bioscience Cat.-No. […] ELISA human acylated Ghrelin Kit purchased from Bertin Pharman (detailed composition of buffers e.g. wash-puffer, ELISA buffer not known)
Cells are plated with a density of 5000 cells/well in 384-well poly-D-lysin plates and incubated for 1 day at 37° C., 5% CO2 in DMEM medium, 10% FCS, 1×NEAA, Puromycin (0.5 μg/ml) and G418 (1 mg/ml). Then the medium is changed to a identical medium without FCS and containing Octanoate-BSA (final concentration 100 μM each) and compound in DMSO (final DMSO concentration 0.3%). After incubation for 5 hours acylghrelin in the medium is measured by ELISA
The medium sample is diluted 1:25 in Elisa buffer, A 25 ul aliquot is transferred to a 384-well ELISA plate previously washed 4 times with 100 μL wash buffer, and 25 μl tracer-solution is added. After incubation overnight (˜20 h) at 4° C. temperature the plate is washed 4 times with 100 μl wash-buffer per well. Finally 50 μl Ellman's reagent is added to each well and the plate is incubated in the dark for 20 minutes. The absorbance is measured at 405 nm in an Envision multilabel reader and the amount of acylated ghrelin is calculated according to a acylated ghrelin standard curve provided in the same plate.
The analysis of the data is performed by calculation of the percentage of acyl-ghrelin produced in the presence of test compound compared to the amount of acyl-ghrelin produced in the vehicle control samples. An inhibitor of the GOAT enzyme will give values between 100% CTL (no inhibition) and 0% CTL (complete inhibition). IC50 values are calculated with Assay Explorer or other suited software based on curve fitting of results of 8 different compound concentrations.

human GOAT, sequence (Q96T53 whole entry): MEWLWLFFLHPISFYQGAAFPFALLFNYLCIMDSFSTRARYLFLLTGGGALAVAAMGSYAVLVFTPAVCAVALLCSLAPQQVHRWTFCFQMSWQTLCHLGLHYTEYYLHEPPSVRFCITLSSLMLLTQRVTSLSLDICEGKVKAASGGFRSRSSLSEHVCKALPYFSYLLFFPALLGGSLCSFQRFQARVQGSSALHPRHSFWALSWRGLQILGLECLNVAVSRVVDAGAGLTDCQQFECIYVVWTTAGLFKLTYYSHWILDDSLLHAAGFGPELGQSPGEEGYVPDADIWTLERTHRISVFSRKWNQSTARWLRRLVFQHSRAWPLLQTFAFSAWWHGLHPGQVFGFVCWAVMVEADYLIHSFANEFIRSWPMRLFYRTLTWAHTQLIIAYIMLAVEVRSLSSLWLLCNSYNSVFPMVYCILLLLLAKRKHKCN

Row | SMILES | IC50
1 | Cc1nc2nonc2c(N)c1Cc1ncc(C#N)c(C2CCOC2)n1 (stereo not shown) [Example 80, 2-(7-amino-5-methyl-[1,2,5]oxadiazolo[3,4-b]pyridin-6-ylmethyl)-4-(oxolan-3-yl)pyrimidine-5-carbonitrile] | 3.8 nM
2 | Cc1nc(Cc2c(C)nc3nonc3c2N)ncc1C#N [Example 81, 2-(7-amino-5-methyl-[1,2,5]oxadiazolo[3,4-b]pyridin-6-ylmethyl)-4-methylpyrimidine-5-carbonitrile] | 7 nM
3 | Cc1nc2nonc2c(N)c1Cc1ncc(C#N)c(C(C)(F)F)n1 [Example 82, 2-(7-amino-5-methyl-[1,2,5]oxadiazolo[3,4-b]pyridin-6-ylmethyl)-4-(1,1-difluoroethyl)pyrimidine-5-carbonitrile] | 1 nM
4 | Cc1nc2nonc2c(N)c1Cc1ncc(Br)c(C(F)(F)F)n1 [Example 83, 6-[5-bromo-4-(trifluoromethyl)pyrimidin-2-yl]methyl-5-methyl-[1,2,5]oxadiazolo[3,4-b]pyridin-7-amine] | 0.077 nM
5 | Cc1nc2nonc2c(N)c1Cc1ncc(Br)c(C(F)F)n1 [Example 84, 6-[5-bromo-4-(difluoromethyl)pyrimidin-2-yl]methyl-5-methyl-[1,2,5]oxadiazolo[3,4-b]pyridin-7-amine] | 0.21 nM
6 | Cc1nc2nonc2c(N)c1Cc1cccc([S+](C)[O-])n1 (stereo not shown) [Example 85, 6-(6-Methanesulfinyl-pyridin-2-ylmethyl)-5-methyl-[1,2,5]oxadiazolo[3,4-b]pyridin-7-ylamine] | 6.9 nM
7 | Cc1nc2nonc2c(N)c1Cc1cccc(S(C)(=O)=O)n1 [Example 86, 6-(6-Methanesulfonyl-pyridin-2-ylmethyl)-5-methyl-[1,2,5]oxadiazolo[3,4-b]pyridin-7-ylamine] | 19 nM
8 | Cc1nc2nonc2c(N)c1Cc1ccc([S+](C)[O-])cn1 (stereo not shown) [Example 87, 6-(5-Methanesulfinyl-pyridin-2-ylmethyl)-5-methyl-[1,2,5]oxadiazolo[3,4-b]pyridin-7-ylamine] | 9 nM

Further lines, results first:

Row | IC50 | SMILES
9 | 3.3 nM | Cc1nc2nonc2c(N)c1Cc1ccc(S(C)(=O)=O)cn1 [Example 88, 6-(5-Methanesulfonyl-pyridin-2-ylmethyl)-5-methyl-[1,2,5]oxadiazolo[3,4-b]pyridin-7-ylamine]
10 | 0.43 nM | Cc1nc2nonc2c(N)c1Cc1ccc(C(F)(F)F)c(C(N)=O)n1 [Example 89, 6-(7-Amino-5-methyl-[1,2,5]oxadiazolo[3,4-b]pyridin-6-ylmethyl)-3-trifluoromethyl-pyridine-2-carboxylic Acid Amide]
11 | 0.54 nM | Cc1nc2nonc2c(N)c1Cc1ccc(OC(F)F)c(C(N)=O)n1 [Example 90, 6-(7-Amino-5-methyl-[1,2,5]oxadiazolo[3,4-b]pyridin-6-ylmethyl)-3-difluoromethoxy-pyridine-2-carboxylic Acid Amide]
12 | 0.082 nM | Cc1nc2nonc2c(N)c1Cc1ccc(Br)c(OCC2(C)COC2)n1 [Example 95, 6-[5-Bromo-6-(3-methyl-oxetan-3-ylmethoxy)-pyridin-2-ylmethyl]-5-methyl-[1,2,5]oxadiazolo[3,4-b]pyridin-7-ylamine]
13 | 0.022 nM | COc1nc(Cc2c(C)nc3nonc3c2N)ccc1Br [Example 97, 6-(5-Bromo-6-methoxy-pyridin-2-ylmethyl)-5-methyl-[1,2,5]oxadiazolo[3,4-b]pyridin-7-ylamine]
14 | 1.9 nM | Cc1nc2nonc2c(N)c1Cc1ccc(Br)c(OC2COC2)n1 [Example 98, 6-[5-Bromo-6-(oxetan-3-yloxy)-pyridin-2-ylmethyl]-5-methyl-[1,2,5]oxadiazolo[3,4-b]pyridin-7-ylamine]
15 | 0.072 nM | Cc1nc2nonc2c(N)c1Cc1ccc(Br)c(OCC(C)(F)F)n1 [Example 99, 6-[5-Bromo-6-(2,2-difluoro-propoxy)-pyridin-2-ylmethyl]-5-methyl-[1,2,5]oxadiazolo[3,4-b]pyridin-7-ylamine]
16 | 0.034 nM | Cc1nc2nonc2c(N)c1Cc1ccc(Br)c(OCCF)n1 [Example 100, 6-[5-Bromo-6-(2-fluoro-ethoxy)-pyridin-2-ylmethyl]-5-methyl-[1,2,5]oxadiazolo[3,4-b]pyridin-7-ylamine]
